# Where two headings read alike, the source gives them in different places. Where a SMILES comes first, the peptide text is derived from it.
# Columns and labels:
# [1] = test system: HELA cells (Acc57); assay: Cytotoxicity assay (MTT reduction), HELA cells; type: cell-based
# Summary of the method: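 HeLa cells were grown for 24 h, then exposed to peptides at 12.5, 25 and 50 μM in triplicate for 48 h at 37 °C. MTT reduction was read at 595 nm and growth % calculated relative to time-zero wells. LC50 interpolated by linear trend at −50% growth, GI50 at 50%.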
# [2] = test system: human red blood cells (hRBC); assay: Hemolysis
# [3] = target: Trypsin, from human pancreas (Homo sapiens, UniProt P07477); assay: Enzymatic assay, trypsin; details: at 100 μM
# [4] = target: T1, Chymase, from human skin (Homo sapiens, UniProt P23946); assay: Enzymatic assay, chymase
# T1 sequence (P23946 22-247): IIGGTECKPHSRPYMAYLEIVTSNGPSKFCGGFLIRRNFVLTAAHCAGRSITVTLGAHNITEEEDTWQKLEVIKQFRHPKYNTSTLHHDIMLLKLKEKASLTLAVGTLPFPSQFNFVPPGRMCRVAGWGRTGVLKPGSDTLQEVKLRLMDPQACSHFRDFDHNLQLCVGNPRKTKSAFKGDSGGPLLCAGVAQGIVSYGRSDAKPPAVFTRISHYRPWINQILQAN
# [5] = target: T2, Elastase from human neutrophils (Homo sapiens, UniProt P08246); assay: Enzymatic assay, elastase; details: for IC50: Elastase IC50
# T2 sequence (P08246 30-267): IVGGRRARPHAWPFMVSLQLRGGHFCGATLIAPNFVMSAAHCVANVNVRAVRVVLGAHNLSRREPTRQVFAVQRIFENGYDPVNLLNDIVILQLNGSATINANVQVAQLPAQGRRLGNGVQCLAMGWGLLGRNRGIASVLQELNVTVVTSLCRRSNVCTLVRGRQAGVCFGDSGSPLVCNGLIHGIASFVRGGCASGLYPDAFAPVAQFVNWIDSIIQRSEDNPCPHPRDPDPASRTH
# [6] = target: Thrombin, from Human Plasma (Homo sapiens, UniProt P00734); assay: Enzymatic assay, thrombin
# [7] = test system: Tryptase, from human lung; assay: Enzymatic assay, tryptase; details: at 100 μM
# [8] = target: Urokinase from human urine (Homo sapiens, UniProt P00749); assay: Enzymatic assay, urokinase
# [9] = target: T3, CathepsinG, from human neutrophils (Homo sapiens, UniProt P08311); assay: Enzymatic assay, cathepsin G; details: Cathepsin G IC50
# T3 sequence (P08311 21-244): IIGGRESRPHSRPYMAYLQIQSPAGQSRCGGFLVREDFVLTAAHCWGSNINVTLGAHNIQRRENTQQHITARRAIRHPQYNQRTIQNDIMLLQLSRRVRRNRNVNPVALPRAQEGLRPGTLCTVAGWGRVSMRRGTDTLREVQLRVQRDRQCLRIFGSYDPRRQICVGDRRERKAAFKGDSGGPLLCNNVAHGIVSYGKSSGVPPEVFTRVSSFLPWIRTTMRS
# [10] = target: Chymotrypsin, from human pancreas (Homo sapiens, UniProt P17538); assay: Enzymatic assay, chymotrypsin; details: at 100 μM
# [11] = target: Coagulation Factor Xa, from uman plasma (Homo sapiens, UniProt P00742); assay: Enzymatic assay, coagulation factor Xa
# Sequence of Coagulation Factor Xa, from uman plasma (P00742 235-488 limits assumed): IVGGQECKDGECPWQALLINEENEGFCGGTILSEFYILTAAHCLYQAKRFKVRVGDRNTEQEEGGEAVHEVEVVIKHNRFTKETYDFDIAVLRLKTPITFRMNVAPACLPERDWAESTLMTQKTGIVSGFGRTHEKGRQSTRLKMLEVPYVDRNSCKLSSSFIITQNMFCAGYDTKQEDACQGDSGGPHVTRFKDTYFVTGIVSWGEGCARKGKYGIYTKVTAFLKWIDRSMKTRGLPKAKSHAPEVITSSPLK
# Sequence of Coagulation Factor Xa, from uman plasma (P00742 41-179 limits assumed): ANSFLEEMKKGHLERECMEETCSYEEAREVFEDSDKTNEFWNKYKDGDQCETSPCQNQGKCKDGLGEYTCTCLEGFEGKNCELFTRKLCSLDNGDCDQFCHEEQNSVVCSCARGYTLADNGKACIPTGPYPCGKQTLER
# Sequence of Chymotrypsin, from human pancreas (P17538 19-263): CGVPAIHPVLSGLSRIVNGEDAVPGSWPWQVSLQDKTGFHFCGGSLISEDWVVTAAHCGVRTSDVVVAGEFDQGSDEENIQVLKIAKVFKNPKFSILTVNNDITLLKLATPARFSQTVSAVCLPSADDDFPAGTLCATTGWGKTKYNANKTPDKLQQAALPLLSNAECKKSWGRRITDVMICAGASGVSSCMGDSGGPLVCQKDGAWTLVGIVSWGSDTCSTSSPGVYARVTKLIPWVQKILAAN
SMILES,Cytotoxicity LC50/GI50 Hela cells [1],Hemolysis at 100 μM % [2],Trypsin at 100 μM % [3],Chymase at 100 μM % [4],Elastase at 100 μM % ([5]; at 100 μM (stated in cell instead of IC50)),Thrombin at 100 μM % [6],Tryptase at 100 μM % [7],Urokinase at 100 μM % [8],IC50 [9],Chymotrypsin at 100 μM % [10],FXa at 100 μM % [11],Cytotoxicity LC50/GI50 Hela cells ([1]; Hela cells),IC50 [5]
"CC[C@H](C)[C@@H]1NC(=O)[C@@H]2CCCN2C(=O)[C@@H]2CCCN2C(=O)[C@H](CC(=O)O)NC(=O)[C@H](CO)NC(=O)[C@H](CCCCN)NC(=O)[C@H]([C@@H](C)O)NC(=O)[C@H](CCC(=O)O)NC(=O)[C@H](CCCNC(=N)N)NC(=O)[C@@H]2CCCN2C(=O)[C@H]2CCCN2C(=O)[C@H](Cc2ccccc2)NC(=O)[C@H](CCCNC(=N)N)NC1=O [Ex. 7] (HELM PEPTIDE1{R.E.T.K.S.D.P.P.I.R.F.[dP].P}$PEPTIDE1,PEPTIDE1,1:R1-13:R2$$$V2.0)",100 µM,0.2%,41%,13.4%,1.5 at %,0%,1.5%,1.1%,0.091 µM,12%,11.7%,–,–
"CC[C@H](C)[C@@H]1NC(=O)[C@H](C)NC(=O)[C@@H]2CCCN2C(=O)[C@H](CC(=O)O)NC(=O)[C@H](CO)NC(=O)[C@H](CCCCN)NC(=O)[C@H]([C@@H](C)O)NC(=O)[C@@H]2CSSC[C@H](NC1=O)C(=O)N[C@@H](CCCNC(=N)N)C(=O)N1CCC[C@@H]1C(=O)N1CCC[C@H]1C(=O)N[C@@H]([C@@H](C)CC)C(=O)N2 [Ex. 14] (HELM PEPTIDE1{I.C.T.K.S.D.P.A.I.C.R.[dP].P}$PEPTIDE1,PEPTIDE1,2:R3-10:R3|PEPTIDE1,PEPTIDE1,1:R1-13:R2$$$V2.0)",–,0%,88%,42.3%,–,8.7%,84.2%,5.4%,0.052 µM,0%,6%,100 µM,> 100 µM
"CCCC[C@@H]1NC(=O)[C@@H]2CCCN2C(=O)[C@@H]2CCCN2C(=O)[C@H](CC(=O)O)NC(=O)[C@H](CO)NC(=O)[C@H](CCCCN)NC(=O)[C@H]([C@@H](C)O)NC(=O)[C@@H]2CSSC[C@H](NC1=O)C(=O)N[C@@H](CCCNC(=N)N)C(=O)N1CCC[C@@H]1C(=O)N1CCC[C@H]1C(=O)N[C@@H]([C@@H](C)CC)C(=O)N2 [Ex. 19] (HELM PEPTIDE1{I.C.T.K.S.D.P.P.[Nle].C.R.[dP].P}$PEPTIDE1,PEPTIDE1,2:R3-10:R3|PEPTIDE1,PEPTIDE1,1:R1-13:R2$$$V2.0)",–,0%,94.0%,26.9%,–,11%,85.2%,4%,0.041 µM,0%,32%,100 µM,> 100 µM
"CC[C@H](C)[C@@H]1NC(=O)[C@@H]2CCCN2C(=O)[C@@H]2CCCN2C(=O)[C@H](CC(=O)O)NC(=O)[C@H](CO)NC(=O)[C@H](CCCCN)NC(=O)[C@H]([C@@H](C)O)NC(=O)[C@@H]2CSSC[C@H](NC1=O)C(=O)N[C@@H]([C@@H](C)O)C(=O)N1CCC[C@@H]1C(=O)N1CCC[C@H]1C(=O)N[C@@H](C1CCCCC1)C(=O)N2 [Ex. 38] (HELM PEPTIDE1{[O=C([C@@H](N[*:1])C1CCCCC1)[*:2]].C.T.K.S.D.P.P.I.C.T.[dP].P}$PEPTIDE1,PEPTIDE1,2:R3-10:R3|PEPTIDE1,PEPTIDE1,1:R1-13:R2$$$V2.0)",–,0%,96%,1%,–,0%,11%,1%,0.031 µM,4%,0%,100 µM,> 100 µM
"CC[C@H](C)[C@@H]1NC(=O)[C@@H]2CCCN2C(=O)[C@@H]2CCCN2C(=O)[C@H](CC(=O)O)NC(=O)[C@H](CO)NC(=O)[C@H](CCCCN)NC(=O)[C@H]([C@@H](C)O)NC(=O)[C@@H]2CSSC[C@H](NC1=O)C(=O)N[C@@H](CC(=O)O)C(=O)N1CCC[C@@H]1C(=O)N1CCC[C@H]1C(=O)N[C@@H](C1CCCCC1)C(=O)N2 [Ex. 39] (HELM PEPTIDE1{[O=C([C@@H](N[*:1])C1CCCCC1)[*:2]].C.T.K.S.D.P.P.I.C.D.[dP].P}$PEPTIDE1,PEPTIDE1,2:R3-10:R3|PEPTIDE1,PEPTIDE1,1:R1-13:R2$$$V2.0)",–,0%,94%,0%,–,2%,34%,2%,0.038 µM,7%,0%,98 µM,> 100 µM
"CC[C@H](C)[C@@H]1NC(=O)[C@@H]2CCCN2C(=O)[C@@H]2CCCN2C(=O)[C@H](CC(=O)O)NC(=O)[C@H](CO)NC(=O)[C@H](CCCCN)NC(=O)[C@H]([C@@H](C)O)NC(=O)[C@@H]2CSSC[C@H](NC1=O)C(=O)N[C@@H](Cc1ccc(O)cc1)C(=O)N1CCC[C@@H]1C(=O)N1CCC[C@H]1C(=O)N[C@@H](C1CCCCC1)C(=O)N2 [Ex. 40] (HELM PEPTIDE1{[O=C([C@@H](N[*:1])C1CCCCC1)[*:2]].C.T.K.S.D.P.P.I.C.Y.[dP].P}$PEPTIDE1,PEPTIDE1,2:R3-10:R3|PEPTIDE1,PEPTIDE1,1:R1-13:R2$$$V2.0)",–,0.1%,94%,8%,–,1%,33%,10%,0.025 µM,19%,3%,97 µM,> 44.9 µM
"CCCC[C@@H]1NC(=O)[C@@H]2CCCN2C(=O)[C@H]2CCCN2C(=O)[C@H](Cc2ccc(O)cc2)NC(=O)[C@@H]2CSSC[C@H](NC1=O)C(=O)N[C@@H]([C@@H](C)O)C(=O)N[C@@H](CCCCN)C(=O)N[C@@H](CO)C(=O)N[C@@H](CC(=O)O)C(=O)N1CCC[C@H]1C(=O)N1CCC[C@H]1C(=O)N[C@@H]([C@@H](C)CC)C(=O)N2 [Ex. 44] (HELM PEPTIDE1{[Nle].C.T.K.S.D.P.P.I.C.Y.[dP].P}$PEPTIDE1,PEPTIDE1,2:R3-10:R3|PEPTIDE1,PEPTIDE1,1:R1-13:R2$$$V2.0)",–,0.1%,100%,3%,–,9%,50%,14%,0.031 µM,24%,9%,67 µM,> 10 µM
"CC[C@H](C)[C@@H]1NC(=O)[C@@H]2CCCN2C(=O)[C@@H]2CCCN2C(=O)[C@H](CC(=O)O)NC(=O)[C@H](CO)NC(=O)[C@H](CCCCN)NC(=O)[C@H]([C@@H](C)O)NC(=O)[C@@H]2CSSC[C@H](NC1=O)C(=O)N[C@@H](CO)C(=O)N1CCC[C@@H]1C(=O)N[C@@H](CC(=O)O)C(=O)N[C@@H](Cc1ccccc1)C(=O)N2 [Ex. 47] (HELM PEPTIDE1{F.C.T.K.S.D.P.P.I.C.S.[dP].D}$PEPTIDE1,PEPTIDE1,2:R3-10:R3|PEPTIDE1,PEPTIDE1,1:R1-13:R2$$$V2.0)",–,0%,87%,8.2%,–,0%,0%,6.3%,0.064 µM,1%,9.3%,100 µM,> 10 µM

# Reference: patent US8658604B2, “Template-fixed beta-hairpin peptidomimetics with protease inhibitory activity” (Polyphor Ltd, priority 2005, dated 2014)
